Data on 9 molecules can be found in US4937239A, “Azabicycloalkane oxime & azabicycloalkene oxime muscarinic agents” (Warner-Lambert Company, priority 1989, dated 1990).

The IC50 is the point on the concentration scale where inhibition reaches its midpoint. What is called ED50 is the midpoint of the dose-response relation.

For test [1] the following is noted: in vivo; cited from earlier work.
For test [2], the target named is central muscarinic binding site. The experiment in a line: RCMD screening assay: inhibition of radio-labeled cis-methyldioxolane (agonist) binding, rat cerebral cortex tissue. The note with it: R3 is hydrogen, double bond: No; for IC50: rat cerebral cortex; for % Inhib. RCMD: @ 10^-7 M. As for the experimental part: (§1) The biological activity of compounds of the present invention was evaluated using a number of tests. The activity of compounds of this invention as central muscarinic binding site agonists and antagonists was measured. In the RQNB screening assay, which is described more fully by Mark Watson, et al, J. Pharmocol. Exp. Ther., 237 (2): 411 (1986), rat cerebral cortex tissue was treated with radio-labeled quinuclidinyl benzilate, a known muscarinic binding site antagonist. The % inhibition concentration of test compound required to inhibit 50% of the binding of this muscarinic antagonist was then determined.
Similarly, in the RCMD screening assay, described more fully by T. W. Vickeroy, et al, J. Pharmacol. Exp. Ther., 229 (3): 747 (1984), rat cerebral cortex tissue was treated with radio-labeled cis-methyldioxolane,a known muscarinic binding site agonist. The concentrations of test compounds required to inhibit 50% of the binding of this muscarinic agonist were then determined.

The target is the same in test [3]. The test is described as follows: RQNB screening assay: inhibition of radio-labeled quinuclidinyl benzilate (antagonist) binding, rat cerebral cortex tissue. The following applies: R3 is hydrogen, double bond: No; for IC50: rat cerebral cortex; for % Inhib. RQNB: @ 10^-6 M. Here is the method: as §1
For a further test, the system named is laboratory rats. The experiment in a line: SIS, scopolamine induced swimming test. It is filed as in vivo, rat. The note with it: for reversal of scopolamine-induced swimming hyperactivity: rats given scopolamine. Here is the method:
In a second screening assay, designated SIS, the scopolamine induced swimming test, the ability of representative compounds of the present invention to reverse the hyperactive swimming behavior of laboratory rats given scopolamine was assessed. In this test, untreated rats will generally swim distances between 20 to 30 meters during a five minute test period. […] The effect of scopolamine is centrally mediated; the ability of a test compound to reverse the hyperactive swimming behavior induced by scopolamine is thus a measure of the central cholinergic activity of the compound.

For test [4], the system named is patients clinically diagnosed as having presenile primary degenerative dementia. The note with it: cited from earlier work.
Test [5] deals with Aged humans and nonhuman primates. The following applies: aged humans and nonhuman primates with decreased cognition; cited from earlier work.

For `Nc1ccncc1N` [3,4-diaminopyridine], the age-related cognitive deficits entry in test [1] is “ameliorate age-related cognitive deficits”.
In the case of `C#CCON=CC1CN2CCC1CC2` (stereo not drawn) [R1 = Hydrogen, R2 = 2-Propynyl, 1-Azabicyclo[2.2.2]octane-3-carboxaldehyde, O-2-propynyloxime], the IC50 in test [2] was 27 nM; in test [3] it was 348 nM.
In the same order, the values of `C=CCON=CC1CN2CCC1CC2` (stereo not drawn) [R1 = Hydrogen, R2 = Allyl, 1-Azabicyclo[2.2.2]octane-3-carboxaldehyde, O-2-propenyloxime] are 117 nM and 146 nM.
As for `CON=CC1CN2CCC1CC2` (stereo not drawn) [R1 = Hydrogen, R2 = Methyl, 1-Azabicyclo[2.2.2]octane-3-carboxaldehyde, O-methyloxime], the ED50 in the test on laboratory rats (Rattus norvegicus, PO, laboratory rats, read-out: ED50 required to demonstrate reversal of the scopolamine-induced hyperactive swimming activity) stood at 1.8 mg/kg. The results for the 50% inhibitory concentration (IC50) in test [2] and in test [3] were 11.8 nM and 1360 nM, respectively.
Consider `C#CCON=C(C)C1CN2CCC1CC2` (stereo not drawn) [R1 = Methyl, R2 = 2-Propynyl, Ethanone,1-(1-Azabicyclo[2.2.2]oct-3-yl)-, O-2-propynyloxime], for which, in test [2], the “% Inhib. RCMD” value is recorded as 78%. The “% Inhib. RQNB” value in test [3] amounted to 81%.
In the same order, the values of `CON=C(C)C1CN2CCC1CC2` (stereo not drawn) [R1 = Methyl, R2 = Methyl, Ethanone,1-(1-Azabicyclo[2.2.2]oct-3-yl)-, O-methyloxime] are 90% and 54%.
With `COC(=O)C1=CCCN(C)C1` [arecoline, methyl ester of 1,2,5,6-tetrahydro-1-methyl-3-pyridinecarboxylic acid], the “reversal of scopolamine-induced swimming hyperactivity” value in the test with laboratory rats is listed as “can be reversed”. In addition, the “test of picture recognition” value in test [4] (double blind study) is “Significant improvement”. Besides, the “amelioration of symptoms of cognitive disorders” value in test [4] (patients with presenile primary degenerative dementia) is “effective in ameliorating some of the symptoms of cognitive disorders”.
On to `CNC(=O)Oc1ccc2c(c1)[C@]1(C)CCN(C)[C@@H]1N2C` [physostigmine], for which the memory entry in test [5] is “improved memory”. For the same molecule, the “reversal of scopolamine-induced swimming hyperactivity” value in the test with laboratory rats is on record as “can be reversed”.
`CN1[C@@H]2C[C@@H](OC(=O)[C@H](CO)c3ccccc3)C[C@H]1[C@@H]1O[C@@H]12` [scopolamine]: the “increase of swimming distance above baseline values” in the test on laboratory rats (scopolamine 0.1 mg/kg, five minute test period) is recorded as 75-125%.
